Source: patent US11931464B2, “Minimizing agglomeration, aeration, and preserving the coating of pharmaceutical compositions comprising ibuprofen” (Catalent U.K. Swindon Zydis Limited, priority 2019, dated 2024)

Tests used:
[1] = Aeration of suspension mixes, height of the foam in the mixing vessel; format: physicochemical; settings: for Foam Height: 0% mix: 5 mm
Description: (§1) The effectiveness of chemical compounds comprising terpene and/or terpinol at minimizing aeration can be determined in part by measuring the particle size of the hydrophobic coated Ibuprofen in pharmaceutical suspension over time. If the chemical compound is effective, the aeration of the suspension will be adequately low and the particle size of the hydrophobic coated Ibuprofen will remain constant or decrease very little over time. If ineffective, the aeration of the suspension will be higher than desired and the particle size of the hydrophobic coated Ibuprofen can decrease more substantially over time. The extent of aeration of the suspension is assessed by measurement of height of the foam in the mixing vessel. The particle size of the functionally-coated particles can be measured using laser diffraction, a particle analyzer such as a Malvern Mastersizer, or any other suitable means for analyzing fine particles. Example 7: A series of suspension mixes were manufactured by mixing the coated Ibuprofen in the matrix solution/suspension containing various levels of limonene, orange flavor, and strawberry flavor. The height of the foam from these suspension is summarized in Table 7, 8, and 9 respectively.

[2] = Particle size of hydrophobic coated Ibuprofen in suspension with liquid flavor or limonene; format: physicochemical; settings: 0.25% w/w versus 0.45% w/w and 0.75% w/w, 24 hours
Description: as §1, with “particles.” for “particles. Example 7: A series of suspension mixes were manufactured by mixing the coated Ibuprofen in the matrix solution/suspension containing various levels of limonene, orange flavor, and strawberry flavor. The height of the foam from these suspension is summarized in Table 7, 8, and 9 respectively.”
Example 8: FIGS. 10, 11, and 12 show the decrease in particle size (d10, d50, and d90, respectively) of hydrophobic coated Ibuprofen in a pharmaceutical suspension comprising various concentrations of liquid orange flavor. A particle size expressed in terms of its d10 means that 10 percent of the particles in a given volume of sample lie below a given particle size. […]

Aeration of the suspension ([1]; 0.25% w/w): sufficiently low amount of aeration
Foam Height ([1]; 0.30% w/w in mix with coated Ibuprofen): 1 mm
Foam Height ([1]; 0.6% w/w in mix with coated Ibuprofen): 1 mm
Foam Height ([1]; […] w/w in mix with coated Ibuprofen): 2 mm
Effect on aeration ([1]; level […] w/w and above): minimize the aeration
Effect on the coating (particle size d10, d50, d90) [2]: much less deleterious effect
Structure (SMILES): C=C(C)[C@H]1CC=C(C)CC1 [limonene]
